In patent publication US20050142121A1, “System for improving acceptance of tissue grafts made from embryonic stem cells” (priority 2003, published 2005):

Tested on: mouse model for coronary infarction
Assay: hES-derived cardiomyocyte transplant in mouse model for coronary infarction, echocardiography
Assay type: in vivo
Details: for cardiac improvement upon grafting with hES derived cardiomyocytes (measured by echocardiography): grafts pre-treated with the agent, animals optionally pre-conditioned with allopurinol and uricase, result in words
Description: Cardiomyocytes were differentiated from human embryonic stem (hES) cells and purified by density gradient centrifugation on Percoll™, according to established methods (WO 03/006950). They were adapted to decrease uric acid production upon engraftment by culturing for 24 hours in standard differentiation medium (containing 20% FBS) to which had been added 50 μg/mL allopurinol, or 0.5 Units/mL human recombinant erythropoietin (EPO). Alternatively, the cells were heat shocked in standard differentiation medium (20% FBS) by incubating at 43° C. for 45 minutes, and then transferring to a 37° C. incubator 24 h prior to harvest.
Recipient mice were prepared to decrease uric acid production by the engrafted cells by daily injection of 800 μg allopurinol and/or 10 μg uricase intramuscularly for each of the 3 days before transplant.
The transplant experiments were performed using a mouse model for coronary infarction in an external research laboratory under a Research Agreement with Geron Corporation. The left anterior descending artery was ligated as follows. Mice were anesthetized in an isoflurane inhalation chamber and received intraperitoneal injection of Ketanest/Xylazine (50 mg/kg). They were then intubated and ventilated for the entire surgical procedure. Rectal temperature was maintained at 37° C. by a thermostatically regulated heating pad. One ligation with a 9.0 silk stitch was performed on the proximal 2 mm portion of the artery.
Using a 25 g needle, 0.25-2×10^6 cells (suspended in differentiation medium without serum) were injected into the demarcated area. Immediately afterwards, a chest tube (16 G Angio-cath) was inserted and the chest was closed in layers. Ventilation was maintained until there was sufficient spontaneous breathing, and extubation followed. The ventricular diameter was measured after three weeks by echocardiography. Fractional shortening ([…])≡[(diameter at diastole minus diameter at systole)÷(diameter at diastole)].

Oc1ncnc2[nH]ncc12 [allopurinol]
cardiac improvement upon grafting with hES derived cardiomyocytes (measured by echocardiography): considerably enhanced | Fractional shortening at 3 weeks post-treatment (infarcted mice (left anterior descending artery ligation), 0.25-2x10^6 cells injected into infarct area, echocardiography after three weeks): 24%

CC(C)Cc1ccc(C(C)C(=O)O)cc1 (stereo not drawn) [ibuprophen]
cardiac improvement upon grafting with hES derived cardiomyocytes (measured by echocardiography): considerably enhanced
